These results are taken from patent publication US10493061B2, “Compositions and methods comprising 2-(acylamino)imidazoles” (priority 2014, dated 2019).

Values after ≈ are worked out from the molar mass of the structure shown. Values joined by “and” are separate entries in the source; they are usually repeats but may differ in a detail not shown here. Equal entries are not always repeated. Where two headings read alike, the source gives them in different places.

Data set [1] concerns Candida albicans. Description: MIC determination in 96-well plates. The class given is cell-based, Candida albicans (ATCC 90028). The conditions noted are these: read-out: MIC100.
For data set [2] the following is noted: in vivo, mouse models (Ireland et al.); cited from earlier work.
A short description of data set [3]: ITC binding of naamidine A to ZnCl2. The conditions noted are these: ITC with significant amounts of MeOH; reasonable approximation. The source says:
While this is believed to be a reasonable approximation of this binding, these ITC experiments were convoluted by solubility issues of the different species, requiring significant amounts of MeOH which can affect the accuracy of ITC experiments. Fisicaro et al. Thermochim. Acta 2014, 586 (0), 40-44. With a Zn^2+ binding affinity in the high nanomolar range, NA's phenotypic activity is likely a result of both kinase modulation and zinc binding.

The test system of data set [4] is A. baumanii. Description: MIC determination in 96-well plates. In kind it is cell-based, Acinetobacter baumannii (ATCC 19606). The conditions noted are these: Acinetobacter baumannii; read-out: MIC100.
Data set [5] has as its system Mycobacterium tuberculosis. Description: microbe, parasite or virus in culture. The conditions noted are these: read-out: IC50 (anti-proliferative activity).
Protocol: (§1) Library screening and MIC determination for the compounds were performed in 96-well plates as described previously in Koch et al. Planta Med 2009; 75(12): 1326-1330. Different media were used for respective test organisms. […] Mycobacterium tuberculosis H37Ra (ATCC 25177) was grown in 7H9 medium with ADC supplement (Remel, Lenexa, Kans.). Final well volume was 200 μL. […] The remaining wells received 1 μL of test compound in DMSO, in triplicates for MIC determination. Incubation was overnight at 37° C. for other organisms except for M. tuberculosis which was incubated for 5 days. B. subtilis and M. tuberculosis received 11 μL of sterile 5 mg/mL 3-(4,5-dimethylthiazol-2-yl)-2,5-diphenyltetrazolium bromide (MTT) in PBS on day 1 or 4, respectively. Formazan precipitate was dissolved with 50 μL solubilization reagent (50% DMF, 5% SDS, 45% water). Plates were evaluated on a Muliskan FC plate reader (Fisher Scientific, Waltham, Mass.).
Data set [6] deals with CEM-TART cells. Description: Cytotoxicity in CEM-TART cells. The class given is cell-based.
The subject of data set [7] is MCF-7s. Put plainly: Cell viability of MCF-7 cells treated with ZNA and ZNA analogues. In kind it is cell-based, human. The settings on record: ZNA analogues and metabolite; assay not further specified. The source says: Of the analogues evaluated, those with more electron-donating groups at C5 or on the N^2-carbonyl seem to improve activity.
Data set [8] in a line: Zn^2+ binding, (ZNA)2Zn dimer formation (MeOH precipitation, X-ray, NMR). From the text:
The structure of the solid product was confirmed by X-ray crystallography (FIG. 14B). […] HCl in D2O protonates the ligand off the metal center, as evidenced by the disappearance of the diastereotopic benzyllic AB quartet in the dimer and its appearance as a singlet in the monomer. […] Of the analogues evaluated, those with more electron-donating groups at C5 or on the N^2-carbonyl seem to improve activity.

The nature of data set [9]: in vivo. More on the design: species or system Sprague-Dawley rats. The settings on record: female, Sprague-Dawley, rat. The procedure:
ZNA has promising pkpd parameters. An initial pharmacokinetic (PK) analysis on ZNA was performed at 1 mg/kg IV, 5 mg/kg PO. ZNA was dosed to female Sprague-Dawley rats at either 1 mg/kg intravenously or at 5 mg/kg orally. Plasma was collected with K2EDTA and stored at −80° C. until analysis. Quantification of ZNA was performed by protein precipitation followed by ultra-high performance liquid chromatography (UHPLC) interfaced to an electrospray ionization quadrapole time-of-flight mass spectrometer (ESI-QTOF). Plasma concentrations were determined from a calibration curve using […]. The values determined were fit with Phoenix WinNonlin and pharmacokinetic values reported.
The plasma concentrations for ZNA were very low, and most samples fell below the lower limit of quantification for the assay (10.0 ng/mL). This limited the data available for fitting in WinNonlin. To increase the amount of data for fitting, values from below the curve were extrapolated to approximately 40% of the LLOQ and were used for PK fitting. The percent of the area extrapolated in the PO PK animals ranged from 34-70% which was considered quite high. […] The oral bioavailability determined was approximately 6%. This value is considered a rough estimate based upon the area extrapolated and the unusually high clearance determined. […] Possible explanations for the high clearance are binding of compound to red blood cells, extremely rapid clearance that requires collection of earlier time points to establish a more accurate CO, and extrahepatic elimination.

In data set [10] the test system is Mycobacterium tuberculosis. The conditions noted are these: read-out: IC50 (anti-proliferative activity); MTT assay.
Protocol: as §1

By Kd is commonly meant the constant that tells how readily two partners part at equilibrium. As a reminder, the IC50 is the midpoint of a concentration-inhibition curve. Take `COc1ccc(Cc2nc(NC3=NC(=O)N(C)C3=O)n(C)c2Cc2ccc(O)cc2)cc1` [Naamidine A]: the MIC in data set [1] stood at 0.78 µM (≈ 0.338 µg/mL); in data set [4] it was 79 µM (≈ 34.2 µg/mL). Moreover, in [2], the maximum tolerated dose is 25 mg/kg. Also, the Kd in data set [3] was about 350 nM. Also, the IC50 was 940 nM and 0.41 µg/mL in data set [5]; 34.8 µM in data set [6] (CEM-TART cells). Also, the selectivity ratio in [6] (CEM-TART IC50 relative to M. tuberculosis IC50) was found to be 37.
Consider `COc1ccc(-c2c(Cc3ccccc3)nc(N(C)C(=O)c3ccccc3F)n2C)cc1` [ZNA-17, N-(4-Benzyl-5-(4-methoxyphenyl)-1-methyl-1H-imidazol-2-yl)-2-fluoro-N-methylbenzamide], for which the activity entry in data set [7] is recorded as “not active”. For the same compound, the “Zn^2+ binding” value in data set [8] was “incapable of binding Zn^2+”.
`Cn1c(-c2ccc(O)cc2)c(Cc2ccccc2)[nH]/c1=N\C(=O)c1ccccc1F` [ZNA-18, (E)-N-(4-Benzyl-5-(4-hydroxyphenyl)-1-methyl-1H-imidazol-2(3H)-ylidene)-2-fluorobenzamide]: the “ratio of major circulating metabolite to ZNA” value in data set [9] is recorded as 1:1. The outcome in data set [7] was active.
Turning to `COc1ccc(-c2c3cc(OC)c(OC)cc3cc3c2nc(N)n3C)cc1` [kealiinine B, Kealiinine B], the IC50 in data set [10] amounted to 8.9 µM.
Still for that read-out and setting: the figure for `COc1ccc(-c2c3nc(N)n(C)c3cc3cc(OC)c(OC)c(OC)c23)cc1` [kealiinine C, Kealiinine C] is 42 µM.
